Assay results published in US20240109865A1, “INDAZOLE COMPOUNDS AS KINASE INHIBITORS” (TYRA BIOSCIENCES, INC., priority 2020, published 2024).

Legend:
[1] = target: FGFR3-BAIAP2L1 Ba/F3 cells (Homo sapiens, UniProt P22607); assay: Ba/F3 cell viability assay (CellTiter-Glo 2.0), FGFR3-BAIAP2L1 Ba/F3; type: cell-based; settings: for Ba/F3 FGFR1/FGFR3 Selectivity: FGFR3 > FGFR1 selectivity ratio in Ba/F3 FGFR fusion cell based assays; for IC50: read-out: Ba/F3 Cells FGFR3 (IC50 nM), FGFR3-BAIAP2L1 Ba/F3 cells, 48 hours, Cell Titer Glo 2.0
From the text: (§1) Experimental Purpose: Recombinant kinase fusions are transduced into parental Ba/F3, which becomes dependent upon this constitutive kinase activity for IL3-independent survival. Inhibition of kinase activity leads to cell death, which is monitored using CellTiter-Glo® 2.0 (Promega) which measures intracellular ATP concentration that in turn serves as a marker for viability. FGFR1-BCR Ba/F3 and FGFR3-BAIAP2L1 Ba/F3 were obtained from Advanced Cellular Dynamics (Seattle, WA)
(§2) Cell Viability Assay Procedure: Cell Titer-Glo® 2.0 Luminescent cell viability assay reagent was purchased from Promega (Madison, WI). FGFR1-BCR Ba/F3 and FGFR3-BAIAP2L1 Ba/F3 cells were cultured in RPMI1640 media supplemented with 10% fetal bovine serum. Cultures were maintained at 37° C. in a humidified atmosphere of 5% C02 and 95% air.
(§3) Cells were plated in 96-well clear bottom/white plates (Corning #3903) at 10,000 cells/well in 100 μl of media, incubated overnight. The next day, test compound DMSO stock solutions were made at 10 mM and 2 μM final concentration. Compounds were then added to cells in a 9-dose, 10-fold dilution series starting at 30 μM with an HP 300e Digital Dispenser (each dose was applied in triplicate). DMSO was backfilled to each well up to 301 nL total volume of test compound+DMSO, and a total of 301 nL DMSO was added to a control/no test compound well in triplicate. The cells in cell culture plates were incubated with the compounds at 37° C. and 5% C02 for 48 hours. Then 50 μl of Cell Titer Glo 2.0 reagent was added to each well of the cell culture plates. The contents were covered from light and mixed on an orbital shaker at room temperature for 10 min. Luminescence was recorded by a Synergy H1 Microplate Reader (Biotek, Winooski, VT). Cells were assessed as a percentage of DMSO only treated control cells. Curves were plotted and IC50 values were calculated using the GraphPad Prism 8 program based on a sigmoidal dose-response equation (4 parameter).

FGFR1-BCR Ba/F3 cells = FGFR1-BCR Ba/F3 cells (Homo sapiens, UniProt P11362); assay: Ba/F3 cell viability assay (CellTiter-Glo 2.0), FGFR1-BCR Ba/F3; type: cell-based; settings: read-out: Ba/F3 Cells FGFR1 (IC50 nM), 48 hours, Cell Titer Glo 2.0
From the text: as §1, §2, §3

FGFR1 = FGFR1 (Homo sapiens (Human), UniProt P11362); assay: Kinase assay, binding constants (Kd), kinase-tagged T7 phage, qPCR
Summary of the method: (§4)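 Competition binding: kinase-tagged T7 phage lysates mixed with immobilized biotinylated ligand on streptavidin beads plus compound (11-point 3-fold dilution series, 0.9% DMSO final). Bound kinase eluted with free ligand and quantified by qPCR. Kd from Hill equation fit, slope fixed at −1.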

FGFR2 = FGFR2 (Homo sapiens (Human), UniProt P21802); assay: as above
Summary of the method: as §4

FGFR3 = FGFR3 (Homo sapiens (Human), UniProt P22607); assay: as above
Summary of the method: as §4

FGFR3 (V555M) = FGFR3 (V555M) (Homo sapiens (Human), UniProt P22607, V555M); assay: as above; settings: V555M mutant
Summary of the method: as §4

FGFR4 = FGFR4 (Homo sapiens (Human), UniProt P22455); assay: as above
Summary of the method: as §4

Chain of FGFR2 (P21802 22-821): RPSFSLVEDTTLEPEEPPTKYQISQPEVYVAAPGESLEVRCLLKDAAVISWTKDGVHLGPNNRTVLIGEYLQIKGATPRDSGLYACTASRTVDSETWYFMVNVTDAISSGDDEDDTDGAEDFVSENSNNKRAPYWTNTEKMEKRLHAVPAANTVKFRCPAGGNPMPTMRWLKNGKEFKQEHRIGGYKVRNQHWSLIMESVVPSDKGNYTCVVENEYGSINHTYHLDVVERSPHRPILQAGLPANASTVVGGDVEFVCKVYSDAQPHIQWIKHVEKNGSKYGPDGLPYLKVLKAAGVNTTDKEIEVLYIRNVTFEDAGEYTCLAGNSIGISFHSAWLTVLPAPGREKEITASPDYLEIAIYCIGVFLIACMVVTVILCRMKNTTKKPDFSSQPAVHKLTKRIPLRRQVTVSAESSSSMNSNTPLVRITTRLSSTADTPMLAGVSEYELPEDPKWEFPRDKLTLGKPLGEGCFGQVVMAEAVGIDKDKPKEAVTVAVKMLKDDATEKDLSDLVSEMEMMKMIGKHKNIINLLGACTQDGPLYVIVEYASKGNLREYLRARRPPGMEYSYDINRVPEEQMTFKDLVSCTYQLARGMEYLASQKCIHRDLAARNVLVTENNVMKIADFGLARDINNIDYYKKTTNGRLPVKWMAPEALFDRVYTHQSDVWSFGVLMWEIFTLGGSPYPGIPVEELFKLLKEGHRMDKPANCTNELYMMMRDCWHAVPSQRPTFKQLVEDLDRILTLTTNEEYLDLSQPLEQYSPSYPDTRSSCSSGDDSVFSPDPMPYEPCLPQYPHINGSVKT
Chain of FGFR1-BCR Ba/F3 cells (P11362 22-822 limits assumed, change not shown): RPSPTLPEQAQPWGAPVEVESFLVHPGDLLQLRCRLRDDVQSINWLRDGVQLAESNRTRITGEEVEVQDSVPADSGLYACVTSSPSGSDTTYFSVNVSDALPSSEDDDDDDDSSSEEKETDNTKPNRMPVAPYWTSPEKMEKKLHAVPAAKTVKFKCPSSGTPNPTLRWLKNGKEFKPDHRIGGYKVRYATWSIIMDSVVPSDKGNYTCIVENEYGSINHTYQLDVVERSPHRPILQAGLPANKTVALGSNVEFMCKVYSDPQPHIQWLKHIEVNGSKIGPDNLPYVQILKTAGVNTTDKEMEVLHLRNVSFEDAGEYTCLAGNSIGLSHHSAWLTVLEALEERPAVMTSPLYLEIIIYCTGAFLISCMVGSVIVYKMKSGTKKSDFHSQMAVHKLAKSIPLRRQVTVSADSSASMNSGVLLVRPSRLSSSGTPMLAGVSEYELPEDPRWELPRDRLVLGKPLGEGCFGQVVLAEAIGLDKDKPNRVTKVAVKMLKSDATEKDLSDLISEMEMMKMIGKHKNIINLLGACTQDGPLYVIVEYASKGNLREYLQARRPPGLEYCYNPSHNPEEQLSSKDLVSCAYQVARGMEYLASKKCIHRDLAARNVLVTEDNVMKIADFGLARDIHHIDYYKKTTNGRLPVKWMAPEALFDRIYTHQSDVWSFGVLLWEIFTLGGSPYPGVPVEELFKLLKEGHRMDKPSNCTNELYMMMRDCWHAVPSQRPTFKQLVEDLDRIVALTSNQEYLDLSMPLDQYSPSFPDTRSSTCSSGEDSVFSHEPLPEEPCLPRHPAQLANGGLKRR
Chain of FGFR1 (P11362 22-822): as the sequence (P11362 22-822 limits assumed, change not shown) above
Chain of FGFR3-BAIAP2L1 Ba/F3 cells (P22607 23-806 limits assumed, change not shown): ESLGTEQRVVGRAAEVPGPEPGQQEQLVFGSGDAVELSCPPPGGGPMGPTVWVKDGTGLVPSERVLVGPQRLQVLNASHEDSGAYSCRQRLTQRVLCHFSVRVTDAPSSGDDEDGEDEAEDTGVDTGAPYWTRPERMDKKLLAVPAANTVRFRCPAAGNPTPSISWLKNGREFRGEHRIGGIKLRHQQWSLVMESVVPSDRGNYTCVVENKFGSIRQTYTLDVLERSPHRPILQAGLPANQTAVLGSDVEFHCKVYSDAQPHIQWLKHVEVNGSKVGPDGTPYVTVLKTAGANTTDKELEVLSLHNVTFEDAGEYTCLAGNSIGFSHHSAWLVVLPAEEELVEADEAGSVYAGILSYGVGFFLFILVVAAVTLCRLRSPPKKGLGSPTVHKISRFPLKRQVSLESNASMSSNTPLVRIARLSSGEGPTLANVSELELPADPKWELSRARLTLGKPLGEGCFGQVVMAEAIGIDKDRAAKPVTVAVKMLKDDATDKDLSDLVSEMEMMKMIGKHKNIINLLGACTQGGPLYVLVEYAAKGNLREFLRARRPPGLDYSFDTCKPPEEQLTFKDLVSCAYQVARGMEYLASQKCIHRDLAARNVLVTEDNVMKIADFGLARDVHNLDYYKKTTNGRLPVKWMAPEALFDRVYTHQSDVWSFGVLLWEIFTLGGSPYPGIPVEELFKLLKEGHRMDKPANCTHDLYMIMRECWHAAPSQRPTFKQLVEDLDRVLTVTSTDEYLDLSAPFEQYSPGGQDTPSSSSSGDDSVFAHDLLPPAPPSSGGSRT
Chain of FGFR3 (P22607 23-806): as the sequence (P22607 23-806 limits assumed, change not shown) above
Chain of FGFR4 (P22455 22-802): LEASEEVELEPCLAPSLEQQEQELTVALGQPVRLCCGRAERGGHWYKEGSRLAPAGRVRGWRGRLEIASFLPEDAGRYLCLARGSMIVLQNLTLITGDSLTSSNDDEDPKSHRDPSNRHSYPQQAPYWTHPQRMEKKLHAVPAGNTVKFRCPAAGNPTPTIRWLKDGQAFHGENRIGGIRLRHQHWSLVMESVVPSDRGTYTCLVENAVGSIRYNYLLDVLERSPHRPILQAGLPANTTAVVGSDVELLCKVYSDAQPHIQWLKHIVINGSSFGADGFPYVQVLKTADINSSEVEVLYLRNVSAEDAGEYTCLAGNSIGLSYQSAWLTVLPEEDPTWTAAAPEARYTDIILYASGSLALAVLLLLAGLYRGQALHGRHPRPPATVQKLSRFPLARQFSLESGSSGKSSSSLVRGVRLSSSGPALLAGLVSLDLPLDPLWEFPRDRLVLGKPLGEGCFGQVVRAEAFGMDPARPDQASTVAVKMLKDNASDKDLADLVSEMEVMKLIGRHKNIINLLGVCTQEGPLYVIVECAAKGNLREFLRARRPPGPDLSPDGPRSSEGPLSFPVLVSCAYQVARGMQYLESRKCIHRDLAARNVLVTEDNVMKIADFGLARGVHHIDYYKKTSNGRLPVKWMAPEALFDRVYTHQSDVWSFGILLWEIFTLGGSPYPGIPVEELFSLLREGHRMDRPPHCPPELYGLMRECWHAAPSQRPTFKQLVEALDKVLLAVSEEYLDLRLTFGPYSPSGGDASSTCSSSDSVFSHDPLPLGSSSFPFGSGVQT
Chain of FGFR3 (V555M) (P22607 23-806 V555M): as the sequence (P22607 23-806 limits assumed, change not shown) above, with V533M counted along it

SMILES | Ba/F3 FGFR1/FGFR3 Selectivity [1] | IC50 [1] [nM] | IC50 (FGFR1-BCR Ba/F3 cells) [nM] | Kd (FGFR1) [nM] | Kd (FGFR2) [nM] | Kd (FGFR3) [nM] | Kd (FGFR3 (V555M)) [nM] | Kd (FGFR4) [nM]
C[C@@H](Oc1ccc2[nH]nc(-c3ccc(N4CC5(CNC5)OC4=O)nc3)c2c1)c1c(Cl)cncc1Cl [Example 73, 7-[5-[5-[(1R)-1-(3,5-dichloro-4-pyridyl)ethoxy]-1H-indazol-3-yl]-2-pyridyl]-5-oxa-2,7-diazaspiro[3.4]octan-6-one] | 11 | 20 to 100 | 100 to 300 | 1 to 20 | 20 to 100 | 1 to 20 | 1 to 20 | 1 to 20
C[C@@H](Oc1ccc2[nH]nc(-c3ccc(Cl)nc3)c2c1)c1c(Cl)cncc1Cl [Example 18, 3-(6-Chloro-3-pyridyl)-5-[(1R)-1-(3,5-dichloro-4-pyridyl)ethoxy]-1H-indazole] | 21 | 20 to 100 | > 300 | 20 to 100 | 20 to 100 | 1 to 20 | 1 to 20 | 1 to 20
C[C@@H](Oc1ccc2[nH]nc(-c3cnc(N4CCCN(C(N)=O)CC4)nc3)c2c1)c1c(Cl)cncc1Cl [Example 62, 4-[5-[5-[(1R)-1-(3,5-Dichloro-4-pyridyl)ethoxy]-1H-indazol-3-yl]pyrimidin-2-yl]-1,4-diazepane-1-carboxamide] | 8 | 20 to 100 | > 300 | 20 to 100 | 20 to 100 | 1 to 20 | 1 to 20 | 1 to 20
CCOC(=O)N1CCCC2(C1)CN(c1ncc(-c3n[nH]c4ccc(O[C@H](C)c5c(Cl)cncc5Cl)cc34)cn1)C2 [Example 131, ethyl 2-[5-[5-[(1R)-1-(3,5-dichloro-4-pyridyl)ethoxy]-1H-indazol-3-yl]pyrimidin-2-yl]-2,8-diazaspiro[3.5]nonane-8-carboxylate] | 5 | 100 to 300 | > 300 | 100 to 300 | 100 to 300 | 1 to 20 | 1 to 20 | 1 to 20
C[C@@H](Oc1ccc2[nH]nc(-c3ccc(C4CCN(C(N)=O)CC4)nc3)c2c1)c1c(Cl)cncc1Cl [Example 72, 4-[5-[5-[(1R)-1-(3,5-dichloro-4-pyridyl)ethoxy]-1H-indazol-3-yl]-2-pyridyl]piperidine-1-carboxamide] | 15 | 1 to 20 | 20 to 100 | 1 to 20 | 1 to 20 | 1 to 20 | 1 to 20 | 1 to 20
C[C@@H](Oc1ccc2[nH]nc(-c3ccc(N4CCN(C)CC4=O)nc3)c2c1)c1c(Cl)cncc1Cl [Example 38, 1-[5-[5-[(1R)-1-(3,5-dichloro-4-pyridyl)ethoxy]-1H-indazol-3-yl]-2-pyridyl]-4-methyl-piperazin-2-one] | 21 | 1 to 20 | 100 to 300 | 20 to 100 | 20 to 100 | 1 to 20 | 1 to 20 | 1 to 20
C[C@@H](Oc1ccc2[nH]nc(-c3cnc(N4CCC5(CC4)CNC(=O)N5)nc3)c2c1)c1c(Cl)cncc1Cl [Example 53, 8-[5-[5-[(1R)-1-(3,5-dichloro-4-pyridyl)ethoxy]-1H-indazol-3-yl]pyrimidin-2-yl]-1,3,8-triazaspiro-[4.5]decan-2-one] | 11 | 20 to 100 | 100 to 300 | 20 to 100 | 20 to 100 | 1 to 20 | 1 to 20 | 1 to 20
Cc1ncc(Cl)c([C@@H](C)Oc2ccc3[nH]nc(-c4cnn(C5CCOCC5)c4)c3c2)c1Cl [Example 104, 5-[(1R)-1-(3,5-dichloro-2-methyl-4-pyridyl)ethoxy]-3-(1-tetrahydropyran-4-ylpyrazol-4-yl)-1H-indazole] | 10 | 20 to 100 | > 300 | 20 to 100 | 1 to 20 | 1 to 20 | 1 to 20 | 20 to 100
Cc1cnnc(C)c1[C@H](C)Oc1ccc2[nH]nc(-c3ccc(N4CC5(CCS(=O)(=O)C5)C4)nc3)c2c1 [Example 145, 2-[5-[5-[(1S)-1-(3,5-dimethylpyridazin-4-yl)ethoxy]-1H-indazol-3-yl]-2-pyridyl]-6λ^6-thia-2-azaspiro[3.4]octane 6,6-dioxide] | 2 | > 300 | > 300 | > 300 | 20 to 100 | 20 to 100 | 1 to 20 | 100 to 300
C[C@@H](Oc1ccc2[nH]nc(-c3cnc(N4CCC5(CC4)C(=O)NCCN5C)c(F)c3)c2c1)c1c(Cl)cncc1Cl [Example 44, 9-[5-[5-[(1R)-1-(3,5-dichloro-4-pyridyl)ethoxy]-1H-indazol-3-yl]-3-fluoro-2-pyridyl]-1-methyl-1,4,9-triazaspiro[5.5]undecan-5-one] | – | 1 to 20 | 20 to 100 | 1 to 20 | 1 to 20 | 1 to 20 | 1 to 20 | 1 to 20
C[C@@H](Oc1ccc2[nH]nc(-c3cnc(N4CCC5(CCC(=O)N5C)CC4)c(F)c3)c2c1)c1c(Cl)cncc1Cl [Example 43, 8-[5-[5-[(1R)-1-(3,5-dichloro-4-pyridyl)ethoxy]-1H-indazol-3-yl]-3-fluoro-2-pyridyl]-1-methyl-1,8-diazaspiro[4.5]decan-2-one] | 10 | 1 to 20 | 20 to 100 | 1 to 20 | 1 to 20 | 1 to 20 | 1 to 20 | 1 to 20
C[C@@H](Oc1ccc2[nH]nc(-c3ccc(N4CCNC(=O)C4)nc3)c2c1)c1c(Cl)cncc1Cl [Example 36, 4-[5-[5-[(1R)-1-(3,5-dichloro-4-pyridyl)ethoxy]-1H-indazol-3-yl]-2-pyridyl]piperazin-2-one] | 23 | 1 to 20 | 20 to 100 | 1 to 20 | 1 to 20 | 1 to 20 | 1 to 20 | 1 to 20
CCN1CC[C@@H](n2cc(-c3n[nH]c4ccc(O[C@H](C)c5c(Cl)cncc5Cl)cc34)cn2)C1 [Example 91, 5-[(1R)-1-(3,5-dichloro-4-pyridyl)ethoxy]-3-[1-[(3R)-1-ethylpyrrolidin-3-yl]pyrazol-4-yl]-1H-indazole] | 8 | 1 to 20 | 100 to 300 | 1 to 20 | 1 to 20 | 1 to 20 | 1 to 20 | 20 to 100
C[C@@H](Oc1ccc2[nH]nc(-c3cnc(N4CC5(CCN(S(C)(=O)=O)CC5)C4)nc3)c2c1)c1c(Cl)cncc1Cl [Example 137, 5-[(1R)-1-(3,5-dichloro-4-pyridyl)ethoxy]-3-[2-(7-methylsulfonyl-2,7-diazaspiro[3.5]nonan-2-yl)pyrimidin-5-yl]-1H-indazole] | 11 | 1 to 20 | 100 to 300 | 20 to 100 | 20 to 100 | 1 to 20 | 1 to 20 | 1 to 20
